Columns and labels:
dopamine receptors = assay: PETT baboon studies: striatum and cerebellum radioactivity after i.v. [^18 F]-N-methylspiroperidol, with (-)- or (+)-butaclamol pretreatment; conditions: for effect of butaclamol pretreatment on striatal distribution of [^18 F]-N-methylspiroperidol: 0.5 mg/kg i.v. pretreatment
Source text: (§1) A young adult (12 kg) female baboon (Papio anubis) was anesthesized initially with ketamine and subsequently maintained under halothane/nitrous oxide anesthesia for two PETT studies. […] Pett scans were made continually for 4 hrs from the time of radioisotope injection.

dopamine receptor = conditions: cited from earlier work; for prevention of striatal retention of [^18 F]spiroperidol and [^18 F]benperidol: prior administration of butaclamol enantiomer; for retention by the striatum compared with [^18 F]haloperidol: region of high dopamine receptor density
[1] = Baboon plasma analyses (total plasma radioactivity clearance and unchanged radioligand); conditions: baboon, plasma, plasma radioactivity due to unaltered radioligand, baboon plasma, 10 mins after injection
Source text: as §1
Blood was sampled from the femoral artery at initial intervals of 5 secs. Aliquots of plasma were counted to determine the total plasma radioactivity of clearance curves.

[2] = Metabolic stability and uptake in rat brain (striatum, cerebellum); assay type: in vivo, rat (male BNL R strain); conditions: rat brain

SMILES	effect of butaclamol pretreatment on striatal distribution of [^18 F]-N-methylspiroperidol (dopamine receptors)	prevention of striatal retention of [^18 F]spiroperidol and [^18 F]benperidol (dopamine receptor)	crossing of the blood brain barrier compared with [^18 F]haloperidol (dopamine receptor; in vivo)	retention by the striatum compared with [^18 F]haloperidol (dopamine receptor)	also measured
CC(C)(C)C1(O)CCN2CC3c4ccccc4CCc4cccc(c43)C2C1 (single isomer, unassigned; (+)) [(+)-butaclamol, reference compound]	stereospecific blocking of dopamine receptors in the striatum	prevented			
CC(C)(C)C1(O)CCN2CC3c4ccccc4CCc4cccc(c43)C2C1 (single isomer, unassigned; (-)) [(-)-butaclamol, reference compound]	normal distribution of radioligand	not			
O=C(CCCN1CCC(n2c(=O)[nH]c3ccccc32)CC1)c1ccc([18F])cc1 [[^18 F]benperidol]			to a lesser extent than [^18 F]haloperidol	retained to a greater degree by the striatum	
O=C(CCCN1CCC2(CC1)C(=O)NCN2c1ccccc1)c1ccc([18F])cc1 [[^18 F]spiroperidol]			to a lesser extent than [^18 F]haloperidol	retained to a greater degree by the striatum	specifically bound component of radioactivity in the striatum (striatum minus cerebellum) (dopamine receptors; 4 hrs after injection): still increasing at 4 hrs after injection; uptake into the brain (dopamine receptor; baboons): 0.5-1.0 % of the injected dose; clearance from the striatal areas (dopamine receptor; up to 8 hrs. after injection): no clearance; remaining at 10 min [1]: 72%; metabolism in the rat brain [2]: very little metabolism
O=C(CCCN1CCC(O)(c2ccc(Cl)cc2)CC1)c1ccc(F)cc1 [haloperidol]					brain uptake compared with spiroperidol or benperidol (dopamine receptor; in vivo): higher than spiroperidol or benperidol; egress from the brain (dopamine receptor; in vivo): rapid egress; nonspecific binding (dopamine receptor; in vivo): relatively high nonspecific binding

Source: USH1209H, “No-carrier-added (18F)-N-methylspiroperidol” (The United States of America as represented by the United …, priority 1985, dated 1993)
